From patent US12122750B2, “AT2R antagonists and uses thereof” (Eli Lilly and Company, priority 2022, dated 2024)
pKi: −log10 of the molar value.

Tests used:
rAT2R = rAT2R (Rattus norvegicus (Rat), UniProt P35351); assay: Rat binding affinity, competitive radioligand binding assay (SPA), rAT2R HEK293 membranes; details: rat AT2R
Description: Membrane Preparation Protocol (hAT2R HEK293 and rAT2R HEK293)
Receptor Binding Protocol
The assays were performed with a scintillation proximity assay (SPA) method using polyvinyltoluene (PVT) wheat germ agglutinin-coupled SPA beads (Perkin Elmer Cat. #RPNQ0001). Assay buffer containing BSA (50 mM Tris-HCl, pH 7.5, 150 mM NaCl, 0.1% w/v fatty-acid free BSA) was used for preparing radioligand, membrane and SPA bead reagent dilution to working stock concentrations. Reference control and test compounds were diluted to obtain ten-point concentration response curves using a four-fold serial dilution protocol onto assay plates, dispensed acoustically from DMSO stock using automated ECHO instrument technology (Labcyte, Inc.). Concentration response curves were routinely generated with the highest final assay concentration for the reference angiotensin-II control at 50 nM, and the highest final assay concentration for the test compounds at 50 μM. […] The hAT2R membrane was combined with PVT-WGA SPA beads to obtain a final assay concentration of 0.25 μg/well hAT2R membrane+0.1 mg/well PVT-WGA SPA bead. And the hAT1R membrane PVT-WGA SPA bead final concentrations was 0.5 μg/well hAT1R membrane+0.1 mg/well PVT-WGA SPA bead. […] For all assays, radioligand addition was followed by the addition of membrane-SPA bead mixture, i.e., the hAT2R membrane-SPA bead mixture (30 μL), the rAT2R membrane-SPA bead mixture, or the AT1R membrane-SPA bead mixture (30 μL) into the assay plate. All dispensing steps were added using a Multiflo FX (Biotek, Inc.) bulk dispensing instrument. After reagent addition steps, assay plates were sealed, and plate contents mixed for one minute on a benchtop micro-plate shaker. Following a 10-hour incubation at room temperature to allow for bead settling and radioligand binding, bound radioactivity was quantitated using a Microbeta Trilux scintillation counter (Perkin Elmer) and expressed as counts per minute (CPM). The unlabeled angiotensin-II control was included on each plate as an experimental assay reference.
Compounds were tested in a 10-point concentration response curve (CRC) format, with each plate containing the positive control angiotensin-II positive reference compound, and experimental compounds. Maximum binding response (Max) was determined in 32 control wells per plate using assay buffer treatment only, and the minimum binding controls or nonspecific binding response (Min) was also determined in 32 wells per plate by the treatment with 50 nM angiotensin-II. All test sample concentration responses were normalized to the control response and calculated as a percent of the maximal response after correcting for nonspecific binding as shown below: % Specific inhibition=100%−[(CPM−Min)/(Max−Min)×100%]
Percent specific binding (y-axis) was plotted versus the log concentration of compound (x-axis).

AT2R = AT2R (Rattus norvegicus (Rat), UniProt P35351); assay: Inhibition of C21-induced increase in dermal blood flow (laser Doppler imaging); type: in vivo, Sprague Dawley rats
Sequence of AT2R (P35351 whole entry): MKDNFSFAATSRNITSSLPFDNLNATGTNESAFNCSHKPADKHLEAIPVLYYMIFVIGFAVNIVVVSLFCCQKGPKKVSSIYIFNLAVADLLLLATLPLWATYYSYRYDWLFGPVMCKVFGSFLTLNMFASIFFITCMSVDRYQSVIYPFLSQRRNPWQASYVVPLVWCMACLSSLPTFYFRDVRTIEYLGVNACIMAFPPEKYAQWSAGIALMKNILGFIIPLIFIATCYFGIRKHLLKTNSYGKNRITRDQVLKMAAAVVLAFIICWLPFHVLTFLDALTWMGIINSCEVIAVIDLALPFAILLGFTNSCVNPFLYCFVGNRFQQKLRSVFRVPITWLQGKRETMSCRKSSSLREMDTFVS

Sequence of rAT2R (P35351 whole entry): as above

pKi (rAT2R) | mode of action at AT2R (inhibition of C21-induced dermal blood flow) (AT2R; AT2R agonist C21 intradermal) | inhibition at 0.3 mg/kg (AT2R; dose 0.3 mg/kg, C21-induced increase in dermal blood flow) | inhibition at 3 mg/kg (AT2R; dose 3 mg/kg, C21-induced increase in dermal blood flow) | inhibition at 10 mg/kg (AT2R; C21-induced increase in dermal blood flow) | inhibition at 10 mg/kg (AT2R; second, unlabelled column under % Inhibition) | SMILES
9.21 |  |  |  |  |  | CN(C(=O)N1CCC(CC(=O)N(c2ccccc2)C(C2CC2)C2CC2)(C(=O)O)CC1)c1ccc(F)cc1 [Example 18, 4-[2-[N-(dicyclopropylmethyl)anilino]-2-oxo-ethyl]-1-[(4-fluorophenyl)-methyl-carbamoyl]piperidine-4-carboxylic acid]
8.66 | acting as a antagonist | 49.6% | 62.9% | 74.3% | 95.6% | O=C(N1CCC(CC(=O)N(c2ccccc2)c2ccccc2)(C(=O)O)CC1)N1CCc2ccccc21 [Example 3, 1-(indoline-1-carbonyl)-4-[2-oxo-2-(N-phenylanilino)ethyl]piperidine-4-carboxylic acid]
